Results on four compounds are retold here after US9402827B2, “Treatment of gout” (ARDEA BIOSCIENCES, INC., priority 2010, dated 2016).

“And” between values parts separate entries of the source, which are not always exact repeats. Equal entries are not always repeated.

Data set [1] has as its system monosodium urate (MSU) crystal injection-induced inflammation. Nature of the data set: In vivo MSU-induced inflammation, rat air pouch study (Example 3B). The arrangement: species or system Sprague-Dawley rats. As to conditions: for Extravasation (optical absorbance at 620 nm), Av / Extravasation (optical absorbance at 620 nm), individual rats 1-10 / Exudate volume, Av / Exudate volume, individual rats 1-10 / Total white blood cell count, Av / Total white blood cell count, individual rats 1-10: 4 h after MSU. As for the experimental part:
(Air Pouch studies) were unpacked, placed in cages, a health inspection performed and a number assigned. […] Under anesthesia, 30 mL sterile air was injected subcutaneously on day 0 and day 3. Vehicle (water) or Lesinurad were administered orally. On the day of the experiment, rats were dosed with Vehicle, Lesinurad p.o., and/or colchicine s.c. (Sigma, Cat.#C9754, Lot.#188K1131). […] The pouch was gently massaged and the exudate was immediately removed from the air pouch. The exudate volume was measured and recorded for each animal. […] The supernatants were stored at −20° C. for cytokine analysis. […] Plasma extravasation was measured by optical absorbance at 620 nm for each exudate sample.

The subject of data set [2] is MSU-induced knee joint swelling. Put plainly: In vivo MSU-induced inflammation, rat knee joint study (Example 3C). The arrangement: species or system Sprague-Dawley rats. The conditions noted are these: for Average increase in knee diameter: 4 h after MSU. As to the method: [table] Groups 1 and 2 were orally dosed with Vehicle (sterile water) once daily for seven days from Day 1. […] Groups 6 and 7 were orally dosed with Lesinurad once daily for seven days from Day 1; Group 7 also received colchicine administered subcutaneously on Day 7. […] The injection was performed from the anterior aspect of the knee joint, which was slightly extended and flexed. […] Four hours after MSU administration, the rats were anesthetized, the diameter of right knee joints were measured with calipers; surface temperature for right knees were measured. Synovial lavage fluid from the knee was collected by injecting phosphate buffered saline with 1% BSA (0.2 mL) into the joint cavity, the fluid then collected, centrifuged and the supernatants stored at −80° C.

For data set [3], the system named is gout flares. The conditions noted are these: allopurinol dosed with colchicine (0.5 mg QD); separate study; cited from earlier work.
The conditions of data set [4]: in certain instances; cited from earlier work.
For data set [5] the following is noted: in certain instances; cited from earlier work. The source holds these as a separate data set.
Data set [6] concerns TNF-α. Nature of the data set: Effect of rilonacept on TNF-α production (Example 1, FIG. 2A). The format is cell-based. As to conditions: 6 hour time point. The text has this:
(§1) FIG. 2 illustrates the effect of rilonacept […] on TNF-α (FIG. 2A) and IL-1β production (FIG. 2B).
(§2) Activation of the inflammasome results in the release of preformed IL-1, which goes on to activate other targets as well as increase the production of IL-1 itself.

For data set [7], the system named is IL-1β. Put plainly: Effect of rilonacept on IL-1β production (Example 1, FIG. 2B). The format is cell-based.
Source text: as §1, §2

Consider `COc1cc2c(c(OC)c1OC)-c1ccc(OC)c(=O)cc1[C@@H](NC(C)=O)CC2` [Colchicine, reference compound], for which the “Extravasation (optical absorbance at 620 nm), Av” value came out at 1.78 in data set [1] (Colchicine 0.01 mg/kg s.c.), 1.29 in data set [1] (Colchicine 0.1 mg/kg s.c.) and 0.89 in data set [1] (Colchicine 1 mg/kg s.c.). Further, the “Extravasation (optical absorbance at 620 nm), individual rats 1-10” value in data set [1] (Colchicine 0.01 mg/kg s.c.) is 1.34 and 1.53 and 1.46 and 1.67 and 1.63 and 1.74 and 2.62 and 2.39 and 1.99 and 1.42; in data set [1] (Colchicine 0.1 mg/kg s.c.) it was 1.25 and 1.41 and 1.31 and 1.74 and 0.68 and 1.75 and 1.72 and 0.98 and 0.83 and 1.22; in data set [1] (Colchicine 1 mg/kg s.c.) it was 0.75 and 0.36 and 1.17 and 1.19 and 1.24 (2×) and 1.12 and 0.52 and 0.73 and 0.59. Also, the “Exudate volume, Av” value in data set [1] (Colchicine 0.01 mg/kg s.c.) came out at 9.8 mL; in data set [1] (Colchicine 0.1 mg/kg s.c.), 9.86 mL; in data set [1] (Colchicine 1 mg/kg s.c.), 6.13 mL. In addition, the “Exudate volume, individual rats 1-10” value in data set [1] (Colchicine 0.01 mg/kg s.c.) is 12 mL (2×) and 8 mL (3×) and 10 mL and 9 mL (2×) and 11 mL (2×); in data set [1] (Colchicine 0.1 mg/kg s.c.), 9 mL (2×) and 8 mL (2×) and 10 mL and 7.8 mL and 9.8 mL and 11 mL (2×) and 15 mL; in data set [1] (Colchicine 1 mg/kg s.c.) it was 8 mL (2×) and 4.4 mL and 7 mL and 5.9 mL and 8.6 mL and 5.6 mL and 4.6 mL and 4 mL and 5.2 mL. Further, the “Total white blood cell count, Av” value was 1.65 ×10^8 in data set [1] (Colchicine 0.01 mg/kg s.c.), 0.78 ×10^8 in data set [1] (Colchicine 0.1 mg/kg s.c.) and 0.56 ×10^8 in data set [1] (Colchicine 1 mg/kg s.c.). The “Total white blood cell count, individual rats 1-10” value was 0.87 ×10^8 and 2.72 ×10^8 and 3.40 ×10^8 and 0.63 ×10^8 and 2.27 ×10^8 and 0.90 ×10^8 and 2.22 ×10^8 and 2.42 ×10^8 and 0.69 ×10^8 and 0.34 ×10^8 in data set [1] (Colchicine 0.01 mg/kg s.c.); 0.41 ×10^8 and 0.14 ×10^8 and 2.60 ×10^8 and 1.21 ×10^8 and 0.32 ×10^8 and 1.27 ×10^8 and 1.51 ×10^8 and 0.03 ×10^8 and 0.06 ×10^8 and 0.27 ×10^8 in data set [1] (Colchicine 0.1 mg/kg s.c.); 0.36 ×10^8 and 0.01 ×10^8 and 3.43 ×10^8 and 0.32 ×10^8 and 0.52 ×10^8 and 0.26 ×10^8 (2×) and 0.35 ×10^8 and 0.03 ×10^8 and 0.09 ×10^8 in data set [1] (Colchicine 1 mg/kg s.c.). In addition, in data set [1] (Colchicine 0.01, 0.1, 1 mg/kg), the “Number of white blood cells, in words” value was “dose-dependently lowered the number of white blood cells”. Besides, the “Extravasation, in words” value in data set [1] (Colchicine 0.01, 0.1 and 1 mg/kg) is “dose-dependent decrease in extravasation”. Further, the “Exudate volume, in words” value in data set [1] (colchicine 1 mg/kg) is listed as “significantly reduced exudate volume”; in data set [1] (colchicine 0.01 and 0.1 mg/kg), “did not significantly reduce exudate volume”. Besides, the “Average increase in knee diameter” value in data set [2] (Colchicine 0.1 mg/kg s.c., p < 0.01 vs Vehicle) is reported as 0.71 mm; in data set [2] (Colchicine 0.3 mg/kg s.c., p < 0.001 vs Vehicle), 0.53 mm; in data set [2] (Colchicine 1 mg/kg s.c., p < 0.001 vs Vehicle), 0.41 mm. Further, in data set [2] (Colchicine 0.1, 0.3 and 1 mg/kg), the “MSU-induced increase in knee diameter, in words” value is recorded as “dose-dependently decreased the MSU-induced increase in knee diameter”.

For the compound `Oc1ncnc2[nH]ncc12` [allopurinol], the patients experiencing flares in data set [3] is listed as 28%. For the same compound, the “incidence of side effects, of all individuals treated” value in data set [4] was 20%.

For `CCCN(CCC)S(=O)(=O)c1ccc(C(=O)O)cc1` [probenecid], the “individuals who fail to achieve reduction of serum uric acid levels <6 mg/dL” value in data set [5] is listed as 25-50%.

In the case of rilonacept, in data set [6], the TNF-α production entry is listed as “only inhibits the production of TNF-α”. Further, the IL-1 production entry in data set [7] was “does not reduce IL-1 production”.
